Laboratory results: US9820972B2, “Antiviral compounds highly effective as HCV-NS5A inhibitor” (priority 2013, dated 2017)
Like-named read-outs stand apart in the source and are kept apart here.

Test system: GT-1a of NS5A Replicon
Experiment: HCV double reporter gene (Renilla luciferase) replicon assay, GT-1a
Format: cell-based, Hepatitis C virus (HCV)
Procedure: Antiviral Assay for Inhibition Activity (EC50):
The study is completed by a new constructed double reporter genes replicon assay system, the capacity of viral replicon in infected cell is determined by detecting the reporter gene Renilla luciferase. The relationship of reporter genes, HCV RNA replicon and viral proteins is well linear. 8 gradient concentrations for 2-fold dilution, 3 wells, 3 times repetition and 1 or 2 control drugs are set to finally determine EC50 of compound.
THF was distilled from sodium metal and benzophenone. DCM, pentane and hexane were distilled form calcium hydride. Special raw material and intermediate in the invention were ordered by contract synthesis from Zannan SciTech Co., Let in China, others reagents were purchased from Shanghai reagent company, Aldrich, Acros etc. As intermediates or products during the synthesis is not required for the reaction and other tests the next step, the synthesis is repeated until a sufficient number of times. The invention of the prepared compounds of […] (HCV NS5A) inhibitory activity test was performed by CRO service units such as WuXi AppTec etc.

[1] = Hepatitis C virus, GT1A, GT-1a replicon, class symbols, read-out: EC50 For GT-1a of NS5A Replicon
[2] = Hepatitis C virus, GT1A, read-out: EC50 For GT-1a of NS5A Replicon

| SMILES | EC50 [1] [pM] | other results |
| --- | --- | --- |
| COC(=O)N[C@@H](C(=O)N1CC=C[C@H]1c1ncc(-c2ccc(-c3ccc(-c4c[nH]c([C@@H]5CCCN5C(=O)[C@H](NC(=O)OC)c5ccccc5)n4)cc3)cc2)[nH]1)c1ccccc1 [Compound 6dz] | 1 to 999 |  |
| CC(C)[C@H](NC(=O)OC(C)(C)C)C(=O)N1C[C@H](OC(=O)N2Cc3cccc(F)c3C2)CC1c1ncc(-c2ccc(-c3ccc(-c4c[nH]c([C@@H]5CCCN5C(=O)[C@@H](NC(=O)OC(C)(C)C)C(C)C)n4)cc3)cc2)[nH]1 (stereo partly shown) [Compound 6t] | > 50000 |  |
| COC(=O)N[C@H](C(=O)N1CCCC1c1ncc(-c2ccc3c(c2)cc2n3C(c3ccccc3)Oc3cc(-c4cnc([C@@H]5C=CCN5C(=O)[C@@H](NC(=O)OC)C(C)C)[nH]4)ccc3-2)[nH]1)C(C)C (stereo partly shown) [Compound 6cd] | > 50000 |  |
| COC(=O)N[C@H](C(=O)N1CC=C[C@H]1c1ncc(-c2ccc(-c3ccc(-c4cnc([C@@H]5CCCN5C(=O)[C@@H](NC(=O)OC)C5CCCCC5)[nH]4)cc3)cc2)[nH]1)C1CCCC1 [Compound 6dn] | 1 to 999 |  |
| COC(=O)N[C@H](C(=O)N1C[C@H](OC(=O)N2Cc3cc4c(cc3C2)OCO4)C[C@H]1c1nc(-c2ccc(-c3ccc(-c4cnc([C@@H]5C[C@@H](OC(=O)N6Cc7cc8c(cc7C6)OCO8)CN5C(=O)[C@@H](NC(=O)OC)C(C)C)[nH]4)cc3)cc2)c[nH]1)C(C)C [Compound 6n] |  | EC50 [2]: > 50000 pM |
| COC(=O)N[C@H](C(=O)N1CC=C[C@H]1c1ncc(-c2ccc(-c3ccc(-c4cnc([C@@H]5CCCN5C(=O)[C@@H](NC(=O)OC)C5CCCC5)[nH]4)cc3)cc2)[nH]1)C1CCCC1 [Compound 6dp] | 1 to 999 |  |
| COC(=O)N[C@H](C(=O)N1CN(C(=O)N2Cc3cccc(OC)c3C2)CC1c1nc(-c2ccc(-c3ccc(-c4c[nH]c([C@@H]5CCCN5C(=O)[C@@H](NC(=O)OC)C(C)C)n4)cc3)cc2)c[nH]1)C(C)C (stereo partly shown) [Compound 6aw] | 1 to 999 |  |
| COC(=O)N[C@H](C(=O)N1CC=C[C@H]1c1ncc(-c2ccc(-c3ccc(-c4cnc([C@@H]5C=CCN5C(=O)[C@@H](NC(=O)OC)C5CCCCC5)[nH]4)cc3)cc2)[nH]1)C1CCCCC1 [Compound 6dm] | 1 to 999 |  |
| COC(=O)N[C@H](C(=O)N1CC(OC(=O)N2Cc3cc4c(cc3C2)OCO4)CC1c1nc(-c2ccc(-c3ccc(-c4c[nH]c([C@@H]5CC6(CC6)CN5C(=O)[C@@H](NC(=O)OC)C(C)C)n4)cc3)cc2)c[nH]1)C(C)C (stereo partly shown) [Compound 6ak] | 1 to 999 |  |
| COC(=O)N[C@H](C(=O)N1CC=CC1c1ncc(-c2ccc(-c3csc4c(-c5c[nH]c([C@@H]6CCCN6C(=O)[C@@H](NC(=O)OC)C(C)C)n5)csc34)cc2)[nH]1)C(C)C (stereo partly shown) [Compound 6fq] | 1 to 999 |  |
| COC(=O)N[C@H](C(=O)N1CCC[C@H]1c1nc2cc(-c3csc4c(-c5ccc(-c6c[nH]c([C@@H]7CCCN7C(=O)[C@H](NC(=O)OC)c7ccccc7)n6)cc5)csc34)ccc2[nH]1)C(C)C [Ref-4, reference compound] |  | EC50 (GT-1a replicon, class symbols, read-out: EC50 For GT-1a of NS5A Replicon): 1 to 999 pM |
| COC(=O)N[C@H](C(=O)N1CN(C(=O)N2Cc3ccc4c(c3C2)OCO4)CC1c1nc(-c2ccc(-c3ccc(-c4c[nH]c([C@@H]5CC6(CC6)CN5C(=O)[C@@H](NC(=O)OC)C(C)C)n4)cc3)cc2)c[nH]1)C(C)C (stereo partly shown) [Compound 6ap] | 1 to 999 |  |
| CC(C)[C@H](NC(=O)OC(C)(C)C)C(=O)N1C[C@H](OC(=O)N2Cc3ccc4c(c3C2)OCO4)CC1c1ncc(-c2ccc(-c3ccc(-c4c[nH]c([C@@H]5C[C@@H](OC(=O)N6Cc7ccc8c(c7C6)OCO8)CN5C(=O)[C@@H](NC(=O)OC(C)(C)C)C(C)C)n4)cc3)cc2)[nH]1 (stereo partly shown) [Compound 6f] |  | EC50 [2]: > 50000 pM |
| COC(=O)N[C@H](C(=O)N1CC=CC1c1nc(-c2ccc(-c3ccc(-c4c[nH]c([C@@H]5CCCCN5C(=O)[C@@H](NC(=O)OC)C(C)C)n4)cc3)cc2)c[nH]1)C(C)C (stereo partly shown) [Compound 6bk] | 1 to 999 |  |
| COC(=O)N[C@H](C(=O)N1CC=C[C@H]1c1ncc(-c2cc3sc(-c4ccc(-c5cnc([C@@H]6CCCN6C(=O)[C@@H](NC(=O)OC)C(C)C)[nH]5)cc4)cc3s2)[nH]1)C(C)C [Compound 6fn] | 1 to 999 |  |
| CC(C)[C@H](NC(=O)OC1CCCC1)C(=O)N1C[C@H](OC(=O)N2Cc3cc4c(cc3C2)OCO4)C[C@H]1c1nc(-c2ccc(-c3ccc(-c4cnc([C@@H]5C[C@@H](OC(=O)N6Cc7cc8c(cc7C6)OCO8)CN5C(=O)[C@@H](NC(=O)OC5CCCC5)C(C)C)[nH]4)cc3)cc2)c[nH]1 [Compound 6q] |  | EC50 [2]: > 50000 pM |
| COC(=O)N[C@@H](C(=O)N1CCCC1c1ncc(-c2ccc(-c3cc4sc(-c5cnc([C@@H]6CCCN6C(=O)[C@H](NC(=O)OC)c6ccccc6)[nH]5)cc4s3)cc2)[nH]1)c1ccccc1 (stereo partly shown) [Ref-3, reference compound] | 1 to 999 | EC50 (Hepatitis C virus, genotype 1a / genotype 6a, read-out: EC50 for Replicon (pM) of GT-1a to GT-6a: 1a): 51 pM |
| COC(=O)N[C@H](C(=O)N1CCC[C@H]1c1ncc(-c2ccc(-c3ccc(-c4cnc([C@@H]5CCCN5C(=O)[C@@H](NC(=O)N(C)C)C(C)C)[nH]4)cc3)cc2)[nH]1)C(C)C [Compound 6de] | 1 to 999 |  |
| COC(=O)N[C@H](C(=O)N1CCC[C@H]1c1nc(-c2ccc(-c3ccc(-c4cnc([C@@H]5C[C@@H](OC(=O)N6Cc7ccc8c(c7C6)OCO8)CN5C(=O)[C@@H](NC(=O)OC(C)(C)C)C(C)C)[nH]4)cc3)cc2)c[nH]1)C(C)C [Compound 6d] | 1000 to 49900 |  |
| COC(=O)N[C@H](C(=O)N1CC=C[C@H]1c1nc(-c2csc3c(-c4ccc(-c5c[nH]c(C6CCCN6C(=O)[C@H](NC(=O)OC)c6ccccc6)n5)cc4)csc23)c[nH]1)C(C)C (stereo partly shown) [Compound 6fy] | 1 to 999 |  |
| COC(=O)N[C@H](C(=O)N1CCC[C@H]1c1nc(-c2ccc(-c3ccc(-c4cnc([C@@H]5C[C@@H](OC(=O)N6Cc7cccc(F)c7C6)CN5C(=O)[C@@H](NC(=O)OC(C)(C)C)C(C)C)[nH]4)cc3)cc2)c[nH]1)C(C)C [Compound 6u] | 1000 to 49900 |  |
| COC(=O)N[C@H](C(=O)N1CC=C[C@H]1c1ncc(-c2ccc(-c3ccc(-c4cnc([C@@H]5CN(C(=O)OC(C)(C)C)CN5C(=O)[C@@H](NC(=O)OC)C5CCCCC5)[nH]4)cc3)cc2)[nH]1)C(C)C [Compound 6cy] | 1 to 999 |  |
| COC(=O)N[C@H](C(=O)N1CCC[C@H]1c1nc(-c2ccc(-c3ccc(-c4cnc([C@@H]5C[C@@H](OC(=O)N6Cc7cc8c(cc7C6)OCO8)CN5C(=O)[C@@H](NC(=O)OC(C)(C)C)C(C)C)[nH]4)cc3)cc2)c[nH]1)C(C)C [Compound 6m] | 1000 to 49900 |  |
| COC(=O)N[C@H](C(=O)N1C[C@@H](OC(=O)N2Cc3ccc4c(c3C2)OCO4)CC1c1nc(-c2ccc(-c3ccc(-c4c[nH]c([C@@H]5CCCCN5C(=O)[C@@H](NC(=O)OC)C(C)C)n4)cc3)cc2)c[nH]1)C(C)C (stereo partly shown) [Compound 6ad] | 1 to 999 |  |
| COC(=O)N[C@H](C(=O)N1CC(OC(=O)N2Cc3ccc4c(c3C2)OCO4)CC1c1nc(-c2ccc(-c3ccc(-c4c[nH]c([C@@H]5CC6(CC6)CN5C(=O)[C@@H](NC(=O)OC)C(C)C)n4)cc3)cc2)c[nH]1)C(C)C (stereo partly shown) [Compound 6an] | 1 to 999 |  |
| COC(=O)N[C@@H](C(=O)N1CC=CC1c1nc(-c2ccc(-c3cc4sc(-c5c[nH]c(C6C=CCN6C(=O)[C@H](NC(=O)OC)c6ccccc6)n5)cc4s3)cc2)c[nH]1)c1ccccc1 (stereo partly shown) [Compound 6fe] | 1 to 999 |  |
| COC(=O)N[C@@H](C(=O)N1CC=C[C@H]1c1ncc(-c2cc3sc(-c4ccc(-c5cnc([C@@H]6CCCN6C(=O)[C@H](NC(=O)OC)c6ccccc6)[nH]5)cc4)cc3s2)[nH]1)c1ccccc1 [Compound 6fk] | 1 to 999 |  |
